Patent US20060223849A1, “Benzazole derivatives, compositions, and methods of use as beta-secretase inhibitors” (priority 2005, published 2006)

System: HEK293 cells stably expressing wildtype human APP695 protein (HEK-APPwt cells)
Experiment: Aβ cell based assay (Aβ1-40 secretion, ELISA)
Conditions: 1 hr room temperature then five-hour incubation at 37° C., Aβ1-40 ELISA, DAPT as 100% inhibition reference, read-out: EC50, reduction of Aβ1-40 secretion in the cell based assay
Protocol: Aβ Cell Based Assay Procedure
In the following assay, the proteolytic activity of BACE in cells exposed to varying concentrations of a compound of interest is measured by observing the amount of Aβ1-40 secreted from HEK293 cells (Human Embryonic Kidney epithelial cell line) stably expressing either wildtype human APP695 protein (HEK-APPwt cells).
HEK-APPwt cells were grown in high glucose DMEM (Dulbecco's Modified Eagles Medium) with 4500 mg glucose/L,L-glutamine, NaHCO3, pyrdoxin HCl, 10 mM HEPES (4-(2-hydroxyethyl)-1-piperazineethanesulfonic acid) (pH 7.4), 0.1 mM NEAA (Non-essential Amino Acids) (GIBCO Cat#11140-050), 10% fetal bovine serum and 250 μg/ml hygromycin in T-225 flasks at 37° C. with CO2 and humidity control.
Test compounds were initially prepared in DMSO and diluted with DMEM media containing 2% FBS (Fetal bovine serum) and 0.05% Tween20. Ten standard compound solutions were prepared having a range of concentrations. The standard compound solutions were used to determine the EC50 of the test compound. The range of concentrations chosen may depend on the compound's predicted potency.
To prepare the cells for the assay, a flask containing HEK-APPwt cells were trypsinized briefly (1 mL trypsin), and once the cells detached, 4 mL of 10% FBS-DMEM was added to the flask. The detached cells were centrifuged at 900 rpm for 5 min to form a pellet.
The HEK-APPwt cell pellet was re-suspended with 10 mL DMEM media containing 2% FBS. 80 μL of the cell suspension was added to each well of a 96-well cell culture plate to give 100,000 cells/well. 10 μL of a standard compound solution was added to each well of the 96-well cell culture plate followed by 10 μL of Alamar blue solution. The cells were incubated at room temperature for 1 hr, followed by a five-hour incubation in the CO2 incubator at 37° C.
At the end of the incubation, the plates were removed from incubator, and the supernatant was collected. Aβ1-40 concentration in the medium was measured by using a commercial Aβ1-40 ELISA kit (IBL, Japan). Briefly, the ELISA plates were coated with anti-human Aβ35-40 mouse IgG monoclonal antibody. A horseradish peroxidase enzyme conjugated anti-human Aβ11-28 mouse IgG monoclone antibody was used for detection. The cell culture supernatant was diluted 1:4 fold with (EIA buffer+Protease inhibitor (buffer containing Protease Inhibitor (1 mL PI/30 mL buffer). A 100 μL aliquot of the diluted supernatant was added to each well of the ELISA plate and incubated for 6 hrs at 4° C. The ELISA plate was washed 8 times with phosphate buffered saline (PBS) containing 0.05% Tween 20.
A 100 μL of detection antibody was then added and incubated for 1 hour at 4° C. The plate was washed 8 times with PBS buffer containing 0.05% Tween 20 followed by addition of 100 μL of the substrate with the chromogen tetramethyl benzidine (TMB). The plate was incubated in the dark at room temperature for about 30 min and a stop solution (1N H2SO4) was added.
The intensity of the color developed was measured at 450 nm. The optical density at 450 nm (OD450) is proportional to the concentration of human Aβ1-40 secreted by the cell. As a reference, N—[N-(3,5-difluorophenacetyl-L-alanyl)]-S-phenylglycine t-butyl ester (DAPT, a γ-secretase inhibitor) was used to indicate 100% inhibition of BACE activity. Thus, the assay measures the ability of a compound of interest to reduce Aβ1-40 secretion. Compound potency was reported as the EC50 by calculating the percent inhibition at all concentration levels and the data were fit with non-linear curve fitting algorithm using in GraphPad Prism.

SMILES | EC50
O=C(Nc1nc2cccc(C(=O)Nc3ncc[nH]3)c2[nH]1)c1cc2ccccc2cn1 [Example 58, isoquinoline-3-carboxylic acid [4-(1H-imidazol-2-ylcarbamoyl)-1H-benzoimidazol-2-yl]-amide] | ≤ 2 µM
O=C(Nc1ncc[nH]1)c1ccc2[nH]c(NC(=O)c3cc4ccccc4cn3)nc2c1 [Example 140, isoquinoline-3-carboxylic acid [5-(1H-imidazol-2-ylcarbamoyl)-1H-benzoimidazol-2-yl]-amide] | ≤ 2 µM
CS(=O)(=O)c1ccc(CNC(=O)c2cccc3[nH]c(NC(=O)c4cc5ccccc5cn4)nc23)cc1 [Example 155, isoquinoline-3-carboxylic acid [4-(4-methanesulfonyl-benzylcarbamoyl)-1H-benzoimidazol-2-yl]-amide] | ≤ 2 µM
COc1ccc(CNC(=O)c2cccc3nc(NC(=O)c4cc5ccccc5cn4)[nH]c23)cc1 [Example 165, Isoquinoline-3-carboxylic acid [7-(4-methoxy-benzylcarbamoyl)-1H-benzoimidazol-2-yl]-amide] | ≤ 2 µM
COc1ccc(CCNC(=O)c2cccc3nc(NC(=O)c4cc5ccccc5cn4)[nH]c23)cc1 [Example 176, Isoquinoline-3-carboxylic acid {7-[2-(4-methoxy-phenyl)-ethylcarbamoyl]-1H-benzoimidazol-2-yl}-amide] | ≤ 2 µM
Cc1nc(NC(=O)c2cccc3[nH]c(NC(=O)c4cc5ccccc5cn4)nc23)[nH]c1C [Example 193, Isoquinoline-3-carboxylic acid [4-(4,5-dimethyl-1H-imidazol-2-ylcarbamoyl)-1H-benzoimidazol-2-yl]-amide] | ≤ 2 µM
O=C(Nc1nc2c(C(=O)Nc3nc4c(s3)CNCC4)cccc2[nH]1)c1cc2ccccc2cn1 [Example 198, isoquinoline-3-carboxylic acid [7-(4,5,6,7-tetrahydro-thiazolo[5,4-c]pyridin-2-ylcarbamoyl)-1H-benzoimidazol-2-yl]-amide] | ≤ 2 µM
CN1CCc2nc(NC(=O)c3cccc4[nH]c(NC(=O)c5cc6ccccc6cn5)nc34)sc2C1 [Example 212, Isoquinoline-3-carboxylic acid [4-(5-methyl-4,5,6,7-tetrahydro-thiazolo[5,4-c]pyridin-2-ylcarbamoyl)-1H-benzoimidazol-2-yl]-amide] | ≤ 2 µM
Cn1ccnc1CN1CCc2nc(NC(=O)c3cccc4[nH]c(NC(=O)c5cc6ccccc6cn5)nc34)sc2C1 [Example 247, Isoquinoline-3-carboxylic acid {4-[5-(1-methyl-1H-imidazol-2-ylmethyl)-4,5,6,7-tetrahydro-thiazolo[5,4-c]pyridin-2-ylcarbamoyl]-1H-benzoimidazol-2-yl}-amide] | ≤ 2 µM
COc1cc2ccnc(C(=O)Nc3nc4c(C(=O)Nc5ncc[nH]5)cccc4[nH]3)c2cc1OC [Example 289, 6,7-dimethoxy-isoquinoline-1-carboxylic acid [4-(1H-imidazol-2-ylcarbamoyl)-1H-benzoimidazol-2-yl]-amide] | ≤ 2 µM
COc1ccc2cnc(C(=O)Nc3nc4c(C(=O)Nc5ncc[nH]5)cccc4[nH]3)cc2c1 [Example 294, 6-Methoxy-isoquinoline-3-carboxylic acid [4-(1H-imidazol-2-ylcarbamoyl)-1H-benzoimidazol-2-yl]-amide] | ≤ 2 µM
COc1cccc2cc(C(=O)Nc3nc4c(C(=O)Nc5ncc[nH]5)cccc4[nH]3)ncc12 [Example 295, 8-methoxy-isoquinoline-3-carboxylic acid [4-(1H-imidazol-2-ylcarbamoyl)-1H-benzoimidazol-2-yl]-amide] | ≤ 2 µM
COc1ccc2cc(C(=O)Nc3nc4c(C(=O)Nc5ncc[nH]5)cccc4[nH]3)ncc2c1 [Example 296, 7-methoxy-isoquinoline-3-carboxylic acid [4-(1H-imidazol-2-ylcarbamoyl)-1H-benzoimidazol-2-yl]-amide] | ≤ 2 µM
Cc1nc(C(=O)Nc2nc3c(C(=O)Nc4ncc[nH]4)cccc3[nH]2)cc2ccccc12 [Example 300, 1-methyl-isoquinoline-3-carboxylic acid [4-(1H-imidazol-2-ylcarbamoyl)-1H-benzoimidazol-2-yl]-amide] | ≤ 2 µM
O=C(Nc1nc2c(C(=O)Nc3ncc[nH]3)cccc2[nH]1)c1nccc2ccccc12 [Example 311, Ar = Isoquinoline-1-yl] | ≤ 2 µM
COc1cc2cnc(C(=O)Nc3nc4c(C(=O)Nc5ncc[nH]5)cccc4[nH]3)cc2cc1OC [Example 312, Ar = 6,7-Dimethoxy-isoquinoline-3-yl] | ≤ 2 µM
O=C(Nc1nc2c(C(=O)Nc3ncc[nH]3)cccc2[nH]1)c1cc2cc3c(cc2cn1)OCCO3 [Example 318, Ar = 2,3-Dihydro-[1,4]dioxino[2,3-g]isoquinoline-8-yl] | ≤ 2 µM
N#Cc1cccc(-c2cccc(C(=O)Nc3nc4c(C(=O)Nc5ncc[nH]5)cccc4[nH]3)n2)c1 [Example 343, 2-{[6-(3-cyano-phenyl)-pyridine-2-carbonyl]-amino}-1H-benzoimidazole-4-carboxylic acid (1H-imidazol-2-yl)-amide] | ≤ 2 µM
O=C(Nc1nc2c(C(=O)Nc3ncc[nH]3)cccc2[nH]1)c1cncc(-c2cccc(F)c2)c1 [Example 351, Ar = 5-(3-Fluoro-phenyl)-pyridine-3-yl] | ≤ 2 µM
O=C(Nc1nc2c(C(=O)Nc3ncc[nH]3)cccc2[nH]1)c1cccc(-c2ccco2)n1 [Example 355, Ar = 6-(Furan-2-yl)-pyridine-2-yl] | ≤ 2 µM
O=C(Nc1nc2c(C(=O)Nc3ncc[nH]3)cccc2[nH]1)c1cncc(C#Cc2ccccc2)c1 [Example 414, 2-[(5-phenylethynyl-pyridine-3-carbonyl)-amino]-1H-benzoimidazole-4-carboxylic acid (1H-imidazol-2-yl)-amide] | ≤ 2 µM
O=C(Nc1nc2c(C(=O)Nc3ncc[nH]3)cccc2[nH]1)c1cccc(C#Cc2ccccc2)n1 [Example 416, 2-[(6-phenylethynyl-pyridine-2-carbonyl)-amino]-1H-benzoimidazole-4-carboxylic acid (1H-imidazol-2-yl)-amide] | ≤ 2 µM
CS(=O)(=O)c1cccc(C#Cc2cccc(C(=O)Nc3nc4c(C(=O)Nc5ncc[nH]5)cccc4[nH]3)n2)c1 [Example 417, 2-{[6-(3-methanesulfonyl-phenylethynyl)-pyridine-2-carbonyl]-amino}-1H-benzoimidazole-4-carboxylic acid (1H-imidazol-2-yl)-amide] | ≤ 2 µM
CC(C)(C)C#Cc1cccc(C(=O)Nc2nc3c(C(=O)Nc4ncc[nH]4)cccc3[nH]2)n1 [Example 428, Ar = 6-(3,3-Dimethyl-but-1-ynyl)-pyridine-2-yl] | ≤ 2 µM
O=C(Nc1nc2c(C(=O)Nc3ncc[nH]3)cccc2[nH]1)c1cccc(C#Cc2cccnc2)n1 [Example 434, Ar = 6-(Pyridin-3-ylethynyl)-pyridine-2-yl] | ≤ 2 µM
O=C(Nc1nc2c(C(=O)Nc3ncc[nH]3)cccc2[nH]1)c1cccc(C#CC2CC2)n1 [Example 439, Ar = 6-(Cyclopropylethynyl)-pyridine-2-yl] | ≤ 2 µM
CS(=O)(=O)c1ccc(CNC(=O)c2cc(-c3ccncc3)cc3[nH]c(NC(=O)c4cc5ccccc5cn4)nc23)cc1 [Example 458, isoquinoline-3-carboxylic acid [4-(4-methanesulfonyl-benzylcarbamoyl)-6-pyridin-4-yl-1H-benzoimidazol-2-yl]-amide] | ≤ 2 µM
CCOc1cc(C(=O)Nc2ncc[nH]2)c2[nH]c(NC(=O)c3cc4ccccc4cn3)nc2c1 [Example 472, isoquinoline-3-carboxylic acid [5-ethoxy-7-(1H-imidazol-2-ylcarbamoyl)-1H-benzoimidazol-2-yl]-amide] | ≤ 2 µM
